Laboratory results taken from patent US20250230193A1, “CYCLIC COMPOUND HAVING SELECTIVE KRAS INHIBITORY EFFECT ON HRAS AND NRAS” (CHUGAI SEIYAKU KABUSHIKI KAISHA, priority 2022, published 2025).
Where a SMILES comes first, the peptide text is derived from it. Bridges are numbered along the chain shown (N, C = ends). [ ]: non-standard residue; d: D form. The star is where a group is joined. hPhe(3-Cl-4-CF3) = N[C@@H](CCc1ccc(C(F)(F)F)c(Cl)c1)C(=O)O; NPrPhe(4-CF3) = CCCN[C@@H](Cc1ccc(C(F)(F)F)cc1)C(=O)O; NMeGly(cPent) = CN[C@H](C(=O)O)C1CCCC1; Pro(4,4-F2) = O=C(O)[C@@H]1CC(F)(F)CN1; NMeD = CN[C@@H](CC(=O)O)C(=O)O; NMeL = CN[C@@H](CC(C)C)C(=O)O; Morpholide = C1CN(*)CCO1; Ac5c = NC1(C(=O)O)CCCC1; Aze = O=C(O)[C@@H]1CCN1; Sar = CNCC(=O)O

Assays:
[1] = molecular target: GDP-bound NRAS wild-type protein (Homo sapiens, UniProt P01111); assay: Binding to NRAS by surface plasmon resonance (SPR), Single Cycle Kinetics; settings: for NRAS/KRAS (ratio of KD value with respect to NRAS to KD value with respect to KRAS) / NRAS/KRAS (ratio of KD value for NRAS to KD value for KRAS): GDP-bound NRAS wild-type vs GDP-bound KRAS wild-type
GDP-bound NRAS wild-type protein, sequence (P01111 whole entry): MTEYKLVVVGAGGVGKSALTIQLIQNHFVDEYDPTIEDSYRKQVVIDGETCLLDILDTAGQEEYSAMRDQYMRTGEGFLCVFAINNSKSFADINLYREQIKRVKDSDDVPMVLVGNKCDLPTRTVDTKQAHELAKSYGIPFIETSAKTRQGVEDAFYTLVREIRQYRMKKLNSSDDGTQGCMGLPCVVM

[2] = molecular target: GDP-bound HRAS wild-type protein (Homo sapiens, UniProt P01112); assay: Binding to HRAS by surface plasmon resonance (SPR), Single Cycle Kinetics; settings: for HRAS/KRAS (ratio of KD value with respect to HRAS to KD value with respect to KRAS) / HRAS/KRAS (ratio of KD value for HRAS to KD value for KRAS): GDP-bound HRAS wild-type vs GDP-bound KRAS wild-type
GDP-bound HRAS wild-type protein, sequence (P01112 whole entry): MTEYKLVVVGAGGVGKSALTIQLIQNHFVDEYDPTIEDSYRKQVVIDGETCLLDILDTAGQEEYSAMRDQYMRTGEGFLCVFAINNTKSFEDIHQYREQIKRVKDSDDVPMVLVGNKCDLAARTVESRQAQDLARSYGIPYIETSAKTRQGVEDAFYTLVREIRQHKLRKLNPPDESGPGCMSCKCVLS

[3] = KD ratio NRAS/KRAS, class symbols
[4] = KD ratio HRAS/KRAS, class symbols

With CCCN1C(=O)[C@@H]2CCN2C(=O)CN(C)C(=O)[C@H]([C@@H](C)CC)NC(=O)[C@H](CC(C)C)N(C)C(=O)C[C@@H](C(=O)N2CCOCC2)N(C)C(=O)[C@H](C2CCCC2)N(C)C(=O)C2(CCCC2)NC(=O)[C@@H]2CC(F)(F)CN2C(=O)[C@H](CCc2ccc(C(F)(F)F)c(Cl)c2)NC(=O)CN(C)C(=O)[C@@H]1Cc1ccc(C(F)(F)F)cc1 [PP0408] ([NMeL]I[Sar][Aze][NPrPhe(4-CF3)][Sar][hPhe(3-Cl-4-CF3)][Pro(4,4-F2)][Ac5c][NMeGly(cPent)][NMeD]-Morpholide; lactam N-11) the “NRAS/KRAS (ratio of KD for GDP-bound NRAS wild-type to KD for KRAS)” value ([1]; KD ratio NRAS/KRAS, SPR) was “C (A compound having a KD ratio of 0.1 or more and less than 3 is denoted as C)” and the “HRAS/KRAS (ratio of KD for GDP-bound HRAS wild-type to KD for KRAS)” value ([2]; KD ratio HRAS/KRAS, SPR) was “B (a compound having 3 or more and less than 10 is denoted as B)”.
With C#CCN1CC(=O)N(C)[C@H]2C/C=C\CCN(C2=O)[C@@H](Cc2ccc(C)cc2)C(=O)N(C)CC(=O)N[C@@H](CCc2cc(F)c(C(F)(F)F)c(F)c2)C(=O)N2C[C@H](OCC)C[C@H]2C(=O)NC2(CC(C)(C)C2)C(=O)N(C)[C@@H](C2CCCC2)C(=O)N(C)[C@H](C(=O)N(C)C)CC(=O)N(C)[C@@H](CC(C)C)C(=O)N[C@@H]([C@@H](C)CC)C1=O [PP2052] the “NRAS/KRAS (ratio of KD value with respect to NRAS to KD value with respect to KRAS)” value ([1]; SPR) was “A (a compound having 10 or more and less than 20 is denoted as A)” and the “HRAS/KRAS (ratio of KD value with respect to HRAS to KD value with respect to KRAS)” value ([2]; SPR) was “A (a compound having 10 or more and less than 20 is denoted as A)”.
For CCCO[C@@H]1C[C@H]2C(=O)NC3(CC(C)(C)C3)C(=O)N(C)[C@@H](C3CCCC3)C(=O)N(C)[C@H](C(=O)N(C)CC)CC(=O)N(C)[C@H]3CCCc4ccc(cc4)C[C@@H](C(=O)N(C)CC(=O)N[C@@H](CCc4ccc(C(F)(F)F)c(OC)c4)C(=O)N2C1)N1CC/C=C\C[C@@H](C1=O)N(C)C(=O)CN(C1CC1)C(=O)[C@H]([C@@H](C)CC)NC3=O [PP3088], the “NRAS/KRAS (ratio of KD value with respect to GDP-bound NRAS wild-type protein to KD value with respect to KRAS)” value ([1]; KD ratio NRAS/KRAS, SPR, GDP-bound wild-type proteins) was “B (a compound having 3 or more and less than 10 is denoted as B)” and the “HRAS/KRAS (ratio of KD value with respect to GDP-bound HRAS wild-type protein to KD value with respect to KRAS)” value ([2]; KD ratio HRAS/KRAS, SPR, GDP-bound wild-type proteins) was “B (a compound having 3 or more and less than 10 is denoted as B)”.
CCO[C@@H]1C[C@H]2C(=O)NC3(CC(C)(C)C3)C(=O)N(C)[C@@H](C3CCCC3)C(=O)N(C)[C@H](C(=O)N(C)C)CC(=O)N(C)[C@@H](C3CCC3)C(=O)N[C@@H]([C@@H](C)CC)C(=O)N(C)CC(=O)N(C)[C@H]3C/C=C\CCN(C3=O)[C@@H](Cc3ccc(C(F)(F)F)cc3)C(=O)N(C)CC(=O)N[C@@H](CCc3ccc(C(F)(F)F)c(OC)c3)C(=O)N2C1 [PP1987] was tested, and the “NRAS/KRAS (ratio of KD value for NRAS to KD value for KRAS)” value ([1]; SPR) was “A (a compound having 10 or more and less than 20 is denoted as A)” and the “HRAS/KRAS (ratio of KD value for HRAS to KD value for KRAS)” value ([2]; SPR) was “A (a compound having 10 or more and less than 20 is denoted as A)”.
For CCC(CC)[C@H]1C(=O)N(C)[C@H](C(=O)N(C)C)CC(=O)N(C)[C@@H](C(C)C)C(=O)N[C@@H]([C@@H](C)CC)C(=O)N(C)CC(=O)N(C)[C@H]2C/C=C\CCN(C2=O)[C@@H](CC2CCC(F)(F)CC2)C(=O)N(C)CC(=O)N[C@@H](CCc2cc(F)c(C(F)(F)F)c(F)c2)C(=O)N2C[C@@H](C)C[C@H]2C(=O)NC2(CC(C)(C)C2)C(=O)N1C [PP2496], the “NRAS/KRAS (ratio of KD value with respect to NRAS to KD value with respect to KRAS)” value ([1]; SPR) was “A (a compound having 10 or more and less than 20 is denoted as A)” and the “HRAS/KRAS (ratio of KD value with respect to HRAS to KD value with respect to KRAS)” value ([2]; SPR) was “A (a compound having 10 or more and less than 20 is denoted as A)”.
CCC[C@H]1C(=O)N[C@@H]([C@@H](C)CC)C(=O)N(C2CC2)CC(=O)N(C)[C@H]2C/C=C\CCN(C2=O)[C@@H](Cc2ccc(C)cc2)C(=O)N(C)CC(=O)N[C@@H](CCc2ccc(C(F)(F)F)c(OC)c2)C(=O)N2C[C@H](OCC)C[C@H]2C(=O)NC2(CC(C)(C)C2)C(=O)N(C)[C@@H](CC(C)(C)C)C(=O)N(C)[C@H](C(=O)N(C)C)CC(=O)N1C [PP2722] was tested, and the “NRAS/KRAS (ratio of KD value with respect to GDP-bound NRAS wild-type protein to KD value with respect to KRAS)” value [1, 3] was “B (a compound having 3 or more and less than 10 is denoted as B)” and the “HRAS/KRAS (ratio of KD value with respect to GDP-bound HRAS wild-type protein to KD value with respect to KRAS)” value [2, 4] was “B (a compound having 3 or more and less than 10 is denoted as B)”.
With CCO[C@@H]1C[C@H]2C(=O)NC3(CCC(F)(F)CC3)C(=O)N(C)[C@@H](C3CCCC3)C(=O)N(C)[C@H](C(=O)N3CCOCC3)CC(=O)N(C)[C@@H](CC(C)C)C(=O)N[C@@H]([C@@H](C)CC)C(=O)N(C)CC(=O)N(C)[C@H]3CCCCCN(C3=O)[C@@H](Cc3ccc(C(F)(F)F)cc3)C(=O)N(C)CC(=O)N[C@@H](CCc3cc(F)c(C(F)(F)F)c(F)c3)C(=O)N2C1 [PP0728] the “NRAS/KRAS (ratio of KD value with respect to GDP-bound NRAS wild-type protein to KD value with respect to KRAS)” value ([1]; KD ratio NRAS/KRAS, SPR) was “B (a compound having 3 or more and less than 10 is denoted as B)” and the “HRAS/KRAS (ratio of KD value with respect to GDP-bound HRAS wild-type protein to KD value with respect to KRAS)” value ([2]; KD ratio HRAS/KRAS, SPR) was “B (a compound having 3 or more and less than 10 is denoted as B)”.
CCCOC[C@H]1C(=O)N[C@@H]([C@@H](C)CC)C(=O)N(C)CC(=O)N(C)[C@H]2C/C=C\CCN(C2=O)[C@@H](Cc2ccc(C(F)(F)F)cc2)C(=O)N(C)CC(=O)N[C@@H](CCc2ccc(C(F)(F)F)c(OC)c2)C(=O)N2C[C@@H](C)C[C@H]2C(=O)NC2(CC(C)(C)C2)C(=O)N(C)[C@@H](C2CCCC2)C(=O)N(C)[C@H](C(=O)N(C)C)CC(=O)N1C [PP1997] was tested, and the “NRAS/KRAS (ratio of KD value for NRAS to KD value for KRAS)” value ([1]; SPR) was “A (a compound having 10 or more and less than 20 is denoted as A)” and the “HRAS/KRAS (ratio of KD value for HRAS to KD value for KRAS)” value ([2]; SPR) was “B (a compound having 3 or more and less than 10 is denoted as B)”.
CCC[C@H]1C(=O)N[C@@H]([C@@H](C)CC)C(=O)N(C)CC(=O)N(C)[C@H]2C/C=C\CCN(C2=O)[C@@H](Cc2ccc(C(F)(F)F)cc2)C(=O)N(C)CC(=O)N[C@@H](CCc2cc(F)c(C(F)F)c(F)c2)C(=O)N2C[C@H](OCC)C[C@H]2C(=O)NC2(CC(C)(C)C2)C(=O)N(C)[C@@H](C2CCCC2)C(=O)N(C)[C@H](C(=O)N(C)C)CC(=O)N1C [PP2780] was tested, and the “NRAS/KRAS (ratio of KD value with respect to GDP-bound NRAS wild-type protein to KD value with respect to KRAS)” value [1, 3] was “A (a compound having 10 or more and less than 20 is denoted as A)” and the “HRAS/KRAS (ratio of KD value with respect to GDP-bound HRAS wild-type protein to KD value with respect to KRAS)” value [2, 4] was “A (a compound having 10 or more and less than 20 is denoted as A)”.
CCC[C@H]1C(=O)N[C@@H]([C@@H](C)CC)C(=O)N(C)CC(=O)N(C)[C@H]2C/C=C\CCN(C2=O)[C@@H](Cc2ccc(C(F)(F)F)cc2)C(=O)N(C)CC(=O)N[C@@H](CCc2cc(F)c(C(F)(F)F)c(F)c2)C(=O)N2C[C@H](OCC)C[C@H]2C(=O)NC2(CC(C)(C)C2)C(=O)N(C)[C@@H](CC2CC2)C(=O)N(C)[C@H](C(=O)N(C)C)CC(=O)N1C [PP2807] was tested, and the “NRAS/KRAS (ratio of KD value with respect to GDP-bound NRAS wild-type protein to KD value with respect to KRAS)” value [1, 3] was “AA (a compound having 20 or more is denoted as AA)” and the “HRAS/KRAS (ratio of KD value with respect to GDP-bound HRAS wild-type protein to KD value with respect to KRAS)” value [2, 4] was “A (a compound having 10 or more and less than 20 is denoted as A)”.
In the case of CCO[C@@H]1C[C@H]2C(=O)NC3(CC(C)(C)C3)C(=O)N(C)[C@@H](C(CC)CC)C(=O)N(C)[C@H](C(=O)N(C)C)CC(=O)N(C)[C@@H](C(C)C)C(=O)N[C@@H]([C@@H](C)CC)C(=O)N(C)CC(=O)N(C)[C@H]3C/C=C\CCN(C3=O)[C@@H](Cc3ccc(C)cc3)C(=O)N(C)CC(=O)N[C@@H](CCc3cc(F)c(C(F)(F)F)c(F)c3)C(=O)N2C1 [PP2153], the “NRAS/KRAS (ratio of KD value with respect to NRAS to KD value with respect to KRAS)” value ([1]; SPR) is reported as “A (a compound having 10 or more and less than 20 is denoted as A)” and the “HRAS/KRAS (ratio of KD value with respect to HRAS to KD value with respect to KRAS)” value ([2]; SPR) is reported as “A (a compound having 10 or more and less than 20 is denoted as A)”.
